Experimental data reported in ChEMBL document CHEMBL5724914, “Linking interpersonal differences in gut microbiota composition and drug biotransformation activity” (2024).

Test: (§1) The drug is tested on Z-030 corresponding to mouse gut metagenome with ENA study accession number: PRJEB37062 and ENA sample accession number: ERS12561829 for biotransformation under anaerobic condition. The drug concentrations were measured over 9 timepoints collected between 0 and 24 hours of incubation by liquid-chromatography-coupled mass spectrometry (LC–MS)
Conditions: 2 µM
Also: call rule not given here.

Row | Bacterial Biotransformation | SMILES
1 | Compound NOT metabolized | COC(=O)[C@H]1[C@H]2C[C@@H]3c4[nH]c5cc(OC)ccc5c4CCN3C[C@H]2C[C@@H](OC(=O)c2cc(OC)c(OC)c(OC)c2)[C@@H]1OC [RESERPINE]
2 | Compound NOT metabolized | C[C@@H]1C[C@H]2[C@@H]3CCC4=CC(=O)C=C[C@]4(C)[C@@]3(F)[C@@H](O)C[C@]2(C)[C@@]1(O)C(=O)CO [DEXAMETHASONE]

Test: as §1, with “Z-028” for “Z-030”, “ERS12561827” for “ERS12561829”
Conditions: 2 µM

Row | Bacterial Biotransformation | SMILES
3 | Compound NOT metabolized | COC(=O)[C@H]1[C@H]2C[C@@H]3c4[nH]c5cc(OC)ccc5c4CCN3C[C@H]2C[C@@H](OC(=O)c2cc(OC)c(OC)c(OC)c2)[C@@H]1OC [RESERPINE]
4 | Compound NOT metabolized | C[C@@H]1C[C@H]2[C@@H]3CCC4=CC(=O)C=C[C@]4(C)[C@@]3(F)[C@@H](O)C[C@]2(C)[C@@]1(O)C(=O)CO [DEXAMETHASONE]

Test: as §1, with “Z-027” for “Z-030”, “to” for “to mouse gut”, “ERS12561826” for “ERS12561829”
Conditions: 2 µM

Row | Bacterial Biotransformation | SMILES
5 | Compound NOT metabolized | COC(=O)[C@H]1[C@H]2C[C@@H]3c4[nH]c5cc(OC)ccc5c4CCN3C[C@H]2C[C@@H](OC(=O)c2cc(OC)c(OC)c(OC)c2)[C@@H]1OC [RESERPINE]
6 | Compound metabolized | C[C@@H]1C[C@H]2[C@@H]3CCC4=CC(=O)C=C[C@]4(C)[C@@]3(F)[C@@H](O)C[C@]2(C)[C@@]1(O)C(=O)CO [DEXAMETHASONE]

Test: as §1, with “Z-026” for “Z-030”, “to” for “to mouse gut”, “ERS12561825” for “ERS12561829”
Conditions: 2 µM

Row | Bacterial Biotransformation | SMILES
7 | Compound NOT metabolized | COC(=O)[C@H]1[C@H]2C[C@@H]3c4[nH]c5cc(OC)ccc5c4CCN3C[C@H]2C[C@@H](OC(=O)c2cc(OC)c(OC)c(OC)c2)[C@@H]1OC [RESERPINE]
8 | Compound NOT metabolized | C[C@@H]1C[C@H]2[C@@H]3CCC4=CC(=O)C=C[C@]4(C)[C@@]3(F)[C@@H](O)C[C@]2(C)[C@@]1(O)C(=O)CO [DEXAMETHASONE]

Test: as §1, with “Z-024” for “Z-030”, “pig” for “mouse”, “ERS12561823” for “ERS12561829”
Conditions: 2 µM

Row | Bacterial Biotransformation | SMILES
9 | Compound NOT metabolized | COC(=O)[C@H]1[C@H]2C[C@@H]3c4[nH]c5cc(OC)ccc5c4CCN3C[C@H]2C[C@@H](OC(=O)c2cc(OC)c(OC)c(OC)c2)[C@@H]1OC [RESERPINE]
10 | Compound metabolized | C[C@@H]1C[C@H]2[C@@H]3CCC4=CC(=O)C=C[C@]4(C)[C@@]3(F)[C@@H](O)C[C@]2(C)[C@@]1(O)C(=O)CO [DEXAMETHASONE]

Test: as §1, with “Z-020” for “Z-030”, “rabbit” for “mouse”, “ERS12561819” for “ERS12561829”
Conditions: 2 µM

Row | Bacterial Biotransformation | SMILES
11 | Compound NOT metabolized | COC(=O)[C@H]1[C@H]2C[C@@H]3c4[nH]c5cc(OC)ccc5c4CCN3C[C@H]2C[C@@H](OC(=O)c2cc(OC)c(OC)c(OC)c2)[C@@H]1OC [RESERPINE]
12 | Compound metabolized | C[C@@H]1C[C@H]2[C@@H]3CCC4=CC(=O)C=C[C@]4(C)[C@@]3(F)[C@@H](O)C[C@]2(C)[C@@]1(O)C(=O)CO [DEXAMETHASONE]

Test: as §1, with “Z-010” for “Z-030”, “to” for “to mouse gut”, “ERS12561810” for “ERS12561829”
Conditions: 2 µM

Row | Bacterial Biotransformation | SMILES
13 | Compound NOT metabolized | COC(=O)[C@H]1[C@H]2C[C@@H]3c4[nH]c5cc(OC)ccc5c4CCN3C[C@H]2C[C@@H](OC(=O)c2cc(OC)c(OC)c(OC)c2)[C@@H]1OC [RESERPINE]
14 | Compound NOT metabolized | C[C@@H]1C[C@H]2[C@@H]3CCC4=CC(=O)C=C[C@]4(C)[C@@]3(F)[C@@H](O)C[C@]2(C)[C@@]1(O)C(=O)CO [DEXAMETHASONE]

Test: as §1, with “Z-004” for “Z-030”, “to” for “to mouse gut”, “ERS12561804” for “ERS12561829”
Conditions: 2 µM

Row | Bacterial Biotransformation | SMILES
15 | Compound NOT metabolized | COC(=O)[C@H]1[C@H]2C[C@@H]3c4[nH]c5cc(OC)ccc5c4CCN3C[C@H]2C[C@@H](OC(=O)c2cc(OC)c(OC)c(OC)c2)[C@@H]1OC [RESERPINE]
16 | Compound metabolized | C[C@@H]1C[C@H]2[C@@H]3CCC4=CC(=O)C=C[C@]4(C)[C@@]3(F)[C@@H](O)C[C@]2(C)[C@@]1(O)C(=O)CO [DEXAMETHASONE]

Test: as §1, with “Z-002” for “Z-030”, “rabbit” for “mouse”, “ERS12561802” for “ERS12561829”
Conditions: 2 µM

Row | Bacterial Biotransformation | SMILES
17 | Compound NOT metabolized | COC(=O)[C@H]1[C@H]2C[C@@H]3c4[nH]c5cc(OC)ccc5c4CCN3C[C@H]2C[C@@H](OC(=O)c2cc(OC)c(OC)c(OC)c2)[C@@H]1OC [RESERPINE]
18 | Compound metabolized | C[C@@H]1C[C@H]2[C@@H]3CCC4=CC(=O)C=C[C@]4(C)[C@@]3(F)[C@@H](O)C[C@]2(C)[C@@]1(O)C(=O)CO [DEXAMETHASONE]

Test: as §1, with “Z-001” for “Z-030”, “ERS12561801” for “ERS12561829”
Conditions: 2 µM

Row | Bacterial Biotransformation | SMILES
19 | Compound NOT metabolized | COC(=O)[C@H]1[C@H]2C[C@@H]3c4[nH]c5cc(OC)ccc5c4CCN3C[C@H]2C[C@@H](OC(=O)c2cc(OC)c(OC)c(OC)c2)[C@@H]1OC [RESERPINE]
20 | Compound NOT metabolized | C[C@@H]1C[C@H]2[C@@H]3CCC4=CC(=O)C=C[C@]4(C)[C@@]3(F)[C@@H](O)C[C@]2(C)[C@@]1(O)C(=O)CO [DEXAMETHASONE]

Test: as §1, with “WLS-370” for “Z-030”, “human” for “mouse”, “ERS12561793” for “ERS12561829”
Conditions: 2 µM

Row | Bacterial Biotransformation | SMILES
21 | Compound metabolized | COC(=O)[C@H]1[C@H]2C[C@@H]3c4[nH]c5cc(OC)ccc5c4CCN3C[C@H]2C[C@@H](OC(=O)c2cc(OC)c(OC)c(OC)c2)[C@@H]1OC [RESERPINE]

Test: as §1, with “WLS-170” for “Z-030”, “human” for “mouse”, “ERS12561762” for “ERS12561829”
Conditions: 2 µM

Row | Bacterial Biotransformation | SMILES
22 | Compound NOT metabolized | C[C@@H]1C[C@H]2[C@@H]3CCC4=CC(=O)C=C[C@]4(C)[C@@]3(F)[C@@H](O)C[C@]2(C)[C@@]1(O)C(=O)CO [DEXAMETHASONE]

Test: as §1, with “WLS-090” for “Z-030”, “human” for “mouse”, “ERS12561753” for “ERS12561829”
Conditions: 2 µM

Row | Bacterial Biotransformation | SMILES
23 | Compound metabolized | COC(=O)[C@H]1[C@H]2C[C@@H]3c4[nH]c5cc(OC)ccc5c4CCN3C[C@H]2C[C@@H](OC(=O)c2cc(OC)c(OC)c(OC)c2)[C@@H]1OC [RESERPINE]

Conditions: human gut metagenome, 24 h, 2 µM

Row | Bacterial Biotransformation | SMILES
24 | Compound metabolized | COC(=O)[C@H]1[C@H]2C[C@@H]3c4[nH]c5cc(OC)ccc5c4CCN3C[C@H]2C[C@@H](OC(=O)c2cc(OC)c(OC)c(OC)c2)[C@@H]1OC [RESERPINE]
25 | Compound NOT metabolized | C[C@@H]1C[C@H]2[C@@H]3CCC4=CC(=O)C=C[C@]4(C)[C@@]3(F)[C@@H](O)C[C@]2(C)[C@@]1(O)C(=O)CO [DEXAMETHASONE]

Conditions: human gut metagenome, 24 h, 2 µM
Remark: another data set of the same source

Row | Bacterial Biotransformation | SMILES
26 | Compound metabolized | COC(=O)[C@H]1[C@H]2C[C@@H]3c4[nH]c5cc(OC)ccc5c4CCN3C[C@H]2C[C@@H](OC(=O)c2cc(OC)c(OC)c(OC)c2)[C@@H]1OC [RESERPINE]
27 | Compound NOT metabolized | C[C@@H]1C[C@H]2[C@@H]3CCC4=CC(=O)C=C[C@]4(C)[C@@]3(F)[C@@H](O)C[C@]2(C)[C@@]1(O)C(=O)CO [DEXAMETHASONE]

Conditions: human gut metagenome, 24 h, 2 µM
Remark: another data set of the same source

Row | Bacterial Biotransformation | SMILES
28 | Compound NOT metabolized | COC(=O)[C@H]1[C@H]2C[C@@H]3c4[nH]c5cc(OC)ccc5c4CCN3C[C@H]2C[C@@H](OC(=O)c2cc(OC)c(OC)c(OC)c2)[C@@H]1OC [RESERPINE]
29 | Compound NOT metabolized | C[C@@H]1C[C@H]2[C@@H]3CCC4=CC(=O)C=C[C@]4(C)[C@@]3(F)[C@@H](O)C[C@]2(C)[C@@]1(O)C(=O)CO [DEXAMETHASONE]

Conditions: human gut metagenome, 24 h, 2 µM
Remark: another data set of the same source

Row | Bacterial Biotransformation | SMILES
30 | Compound NOT metabolized | COC(=O)[C@H]1[C@H]2C[C@@H]3c4[nH]c5cc(OC)ccc5c4CCN3C[C@H]2C[C@@H](OC(=O)c2cc(OC)c(OC)c(OC)c2)[C@@H]1OC [RESERPINE]
31 | Compound NOT metabolized | C[C@@H]1C[C@H]2[C@@H]3CCC4=CC(=O)C=C[C@]4(C)[C@@]3(F)[C@@H](O)C[C@]2(C)[C@@]1(O)C(=O)CO [DEXAMETHASONE]

Conditions: human gut metagenome, 24 h, 2 µM
Remark: another data set of the same source

Row | Bacterial Biotransformation | SMILES
32 | Compound metabolized | COC(=O)[C@H]1[C@H]2C[C@@H]3c4[nH]c5cc(OC)ccc5c4CCN3C[C@H]2C[C@@H](OC(=O)c2cc(OC)c(OC)c(OC)c2)[C@@H]1OC [RESERPINE]
33 | Compound NOT metabolized | C[C@@H]1C[C@H]2[C@@H]3CCC4=CC(=O)C=C[C@]4(C)[C@@]3(F)[C@@H](O)C[C@]2(C)[C@@]1(O)C(=O)CO [DEXAMETHASONE]

Conditions: human gut metagenome, 24 h, 2 µM
Remark: another data set of the same source

Row | Bacterial Biotransformation | SMILES
34 | Compound NOT metabolized | C[C@@H]1C[C@H]2[C@@H]3CCC4=CC(=O)C=C[C@]4(C)[C@@]3(F)[C@@H](O)C[C@]2(C)[C@@]1(O)C(=O)CO [DEXAMETHASONE]

Conditions: human gut metagenome, 24 h, 2 µM
Remark: another data set of the same source

Row | Bacterial Biotransformation | SMILES
35 | Compound metabolized | COC(=O)[C@H]1[C@H]2C[C@@H]3c4[nH]c5cc(OC)ccc5c4CCN3C[C@H]2C[C@@H](OC(=O)c2cc(OC)c(OC)c(OC)c2)[C@@H]1OC [RESERPINE]
36 | Compound NOT metabolized | C[C@@H]1C[C@H]2[C@@H]3CCC4=CC(=O)C=C[C@]4(C)[C@@]3(F)[C@@H](O)C[C@]2(C)[C@@]1(O)C(=O)CO [DEXAMETHASONE]
